The values below come from US9751875B2, “Quinine compounds, and optical isomers, preparation method and medical use thereof” (BEIJING FSWELCOME TECHNOLOGY DEVELOPMENT CO., LTD., priority 2013, dated 2017).

Assay [1] has as its system tracheal smooth muscle from guinea pigs (contraction induced by 3 × 10^−6 mol/L of CCh). Put plainly: Antagonism in vitro of contraction of isolated tracheal smooth muscle from guinea pigs induced by carbachol (CCh). The conditions noted are these: cumulative dosing. Type of assay: cell-based, guinea pig. From the text: Preparation of the Isolated Tracheal Smooth Muscle Specimen from a Guinea Pig:
After a guinea pig was narcotized with urethane, the trachea between the throat and carina of the guinea pig was taken out rapidly, and placed in the Krebs-Henseleit (K-H) solution (composition (g/L): NaCl 6.92, KCl 0.35, CaCl2 0.28, KH2PO4 0.16, MgSO4.7H2O 0.4568, NaHCO3 2.1, Glucose 2.0) with a mixture gas of 5% CO2 and 95% O2 purged. After loose connective tissues and fats around the trachea were separated, the trachea was cut into trachea pieces having a width of about 3 mm and a length of 20 mm by a surgical scissor, with both ends of the trachea piece ligated with 4˜0 silk suture, and then placed into a thermostatic bath containing 5 ml of K—H solution (pH 7.4) at 37° C., with the mixture gas of 5% CO2 and 95% O2 continuously purged. A muscle tension transducer was connected to the upper end so as to apply 1.0 g of resting tension to the specimen, the change of the tension was recorded, the culture solution was replaced every 20 min, and the test was started after being balanced for 60 min.
Administration method: After the trachea piece was stabilized, 3×10^−6 mol/L of CCh was added into a bath, and after the contractile tension of the trachea piece reached a peak level, the example compounds, ipratropium bromide and tiotropium bromide were added into a Magnus bath by a cumulative dosing regimen with a dosage of 10^−9˜10^−5 mol, respectively, and the diastolic condition of the trachea piece was observed: if no response occurred (below the threshold concentration), a next dosage was continued to be added in sequence; if response occurred, after it reached a diastolic plateau, a next dosage was further added. The above operation was repeated until the contractile curve reached the minimum value. Finally, 10^−6 mol/L of isoprenaline was added so that the maximum relaxation would be reached and the curve was recorded.
Statistical approach: The result was expressed as mean ±standard deviation, and counted by Sigma Stat statistical package. The data was analyzed by using variance analysis, the comparison among means of a plurality of specimen was performed by using Student-Newman-Keuls(SNK) test; statistical significant level α=0.05 (bilateral).
Compounds shown in Table 5 were further prepared according to the present invention, and their IC50 […] of resistance to the contraction of tracheal smooth muscle from guinea pigs induced by a concentration of 3×10^−6 mol/L of CCh was determined.

Assay [2] shares this test system. The assay is described as above. It is filed as cell-based, guinea pig.
Where [3] appears, read: 3 × 10^−6 mol/L of CCh, read-out: IC50 (μM), antagonism in vitro against the contraction of the tracheal smooth muscle induced by CCh.
Setting [4] is: Cavia porcellus, 3 × 10^−6 mol/L of CCh, read-out: IC50 (μM), antagonism in vitro against the contraction of the tracheal smooth muscle induced by CCh.
Where [5] appears, read: read-out: IC50 (μM), antagonism in vitro against the contraction of the tracheal smooth muscle induced by CCh, 3 × 10^−6 mol/L of CCh.
The mark [6] stands for this setting: Cavia porcellus, read-out: IC50 (μM), antagonism in vitro against the contraction of the tracheal smooth muscle induced by CCh, 3 × 10^−6 mol/L of CCh.

Where two headings read alike, the source gives them in different places.

Turning to `OC(CO[C@H]1C[N+]2(CCCOc3ccccc3)CCC1CC2)(c1ccccc1)C1CCC1` (stereo partly drawn) [Example 18, (2R,3R),(2S,3S)-3-[(2-cyclobutyl-2-hydroxyl-2-phenyl)ethoxyl]-1-(3-phenoxypropyl)-1-azabicyclo[2,2,2]octane bromide], the IC50 in assay [1] (setting [3]) worked out at 0.156 µM. For the same compound, in assay [2], the “Onset time” value is given as 6.92 min and the “Time for eliminating inhibition effect (min)” value is “more than 300 min”.

With `OC(CO[C@H]1C[N+]2(CCCOc3ccccc3)CCC1CC2)(c1ccccc1)C1CC1` (stereo partly drawn) [Example 19, (2R,3S)-3-[(2-cyclopropyl-2-hydroxyl-2-phenyl)ethoxyl]-1-(3-phenoxypropyl)-1-azabicyclo[2,2,2]octane bromide], in assay [1] (setting [4]), the IC50 turned out to be 1.76 µM. Further, in assay [2], the “Onset time” value turned out to be 6.68 min and the “Time for eliminating inhibition effect (min)” value is recorded as “more than 300 min”.

Regarding `OC(CO[C@H]1C[N+]2(CCCOc3ccccc3)CCC1CC2)(c1ccccc1)C1CC1.[Br-]` (stereo partly drawn) [Example 20, (2S,3S)-3-[(2-cyclopropyl-2-hydroxyl-2-phenyl)ethoxyl]-1-(3-phenoxypropyl)-1-azabicyclo[2,2,2]octane bromide], the IC50 in assay [1] (setting [5]) amounted to 2.35 µM. In addition, in assay [2], the “Onset time” value is 6.32 min and the “Time for eliminating inhibition effect (min)” value is reported as “more than 300 min”.

On to `OC(CO[C@@H]1C[N+]2(CCCOc3ccccc3)CCC1CC2)(c1ccccc1)C1CC1.[Br-]` (stereo partly drawn) [Example 21, (2S,3R)-3-[(2-cyclopropyl-2-hydroxyl-2-phenyl)ethoxyl]-1-(3-phenoxypropyl)-1-azabicyclo[2,2,2]octane bromide], for which the IC50 in assay [1] (setting [5]) stood at 1.35 µM. Further, in assay [2], the “Onset time” value is reported as 6.79 min and the “Time for eliminating inhibition effect (min)” value was “more than 300 min”.

Turning to `OC(CO[C@@H]1C[N+]2(CCCOc3ccccc3)CCC1CC2)(c1ccccc1)C1CC1.[Br-]` (stereo partly drawn) [Example 22, (2R,3R)-3-[(2-cyclopropyl-2-hydroxyl-2-phenyl)ethoxyl]-1-(3-phenoxypropyl)-1-azabicyclo[2,2,2]octane bromide], the IC50 in assay [1] (setting [5]) is 0.373 µM. Besides, in assay [2], the “Onset time” value is on record as 6.45 min and the “Time for eliminating inhibition effect (min)” value is listed as “more than 300 min”.

Turning to `OC(CO[C@H]1C[N+]2(CCCOc3ccccc3)CCC1CC2)(c1ccccc1)C1CC1` (stereo partly drawn) [Example 24, (2R,3R),(2S,3S) Configuration of 3-[(2-cyclopropyl-2-hydroxyl-2-phenyl)ethoxyl]-1-(3-phenoxypropyl)-1-azabicyclo[2,2,2]octane bromide], the IC50 in assay [1] (setting [4]) is 0.451 µM. In assay [2], the “Onset time” value is listed as 6.58 min and the “Time for eliminating inhibition effect (min)” value was “more than 300 min”.

As for `OC(CO[C@@H]1C[N+]2(CCOc3ccccc3)CCC1CC2)(c1ccccc1)C1CCCC1.[Br-]` (stereo partly drawn) [Example 25, (2S,3R)-3-[(2-cyclopentyl-2-hydroxyl-2-phenyl)ethoxyl]-1-(2-phenoxyethyl)-1-azabicyclo[2,2,2]octane bromide], the IC50 in assay [1] (setting [6]) is 0.867 µM. In assay [2], the “Onset time” value turned out to be 6.36 min and the “Time for eliminating inhibition effect (min)” value is given as “more than 300 min”.

Turning to `OC(CO[C@@H]1C[N+]2(COc3ccccc3)CCC1CC2)(c1ccccc1)C1CCCC1.[Br-]` (stereo partly drawn) [Example 27, (2R,3R)-3-[(2-cyclopentyl-2-hydroxyl-2-phenyl)ethoxyl]-1-phenoxymethyl-1-azabicyclo[2,2,2]octane bromide], in assay [1] (setting [6]), the IC50 was 0.0363 µM. In assay [2], the “Onset time” value is 5.89 min and the “Time for eliminating inhibition effect (min)” value is “more than 300 min”.

Turning to `OC(CO[C@@H]1C[N+]2(COCOc3ccccc3)CCC1CC2)(c1ccccc1)C1CCCC1.[Cl-]` (stereo partly drawn) [Example 28, (2R,3R)-3-[(2-cyclopentyl-2-hydroxyl-2-phenyl)ethoxyl]-1-phenoxymethoxymethyl-1-azabicyclo[2,2,2]octane chloride], the IC50 in assay [1] (setting [4]) is 0.0264 µM. Further, in assay [2], the “Onset time” value came out at 6.06 min and the “Time for eliminating inhibition effect (min)” value is given as “more than 300 min”.

Take `OC(COC1C[N+]2(CCCOc3ccccc3)CCC1CC2)(c1cccc2ccccc12)C1CCCC1.[Br-]` [Example 29, (2R,3R)-3-[(2-cyclopentyl-2-hydroxyl-2-naphthyl)ethoxyl]-1-(3-phenoxypropyl)-1-azabicyclo[2,2,2]octane bromide]: in assay [1] (setting [6]), the IC50 stood at 0.723 µM. In assay [2], the “Onset time” value worked out at 7.14 min and the “Time for eliminating inhibition effect (min)” value is “more than 300 min”.

Regarding `OC(COC1C[N+]2(CCCOc3ccccc3)CCC1CC2)(c1ccccc1Cl)C1CCCC1.[Br-]` [Example 30, (2R,3R)-3-[(2-cyclopentyl-2-hydroxyl-2-o-chlorophenyl)ethoxyl]-1-(3-phenoxypropyl)-1-azabicyclo[2,2,2]octane bromide], the IC50 in assay [1] (setting [6]) worked out at 0.0371 µM. In assay [2], the “Onset time” value is recorded as 5.98 min and the “Time for eliminating inhibition effect (min)” value is “more than 300 min”.

Turning to `OC(COC1C[N+]2(CCCOc3ccccc3)CCC1CC2)(c1cccnc1)C1CCCC1.[Br-]` [Example 31, (2R,3R)-3-[(2-cyclopentyl-2-hydroxyl-2-(3-pyridyl))ethoxyl]-1-(3-phenoxypropyl)-1-azabicyclo[2,2,2]octane bromide], in assay [1] (setting [6]), the IC50 turned out to be 0.0206 µM. Besides, in assay [2], the “Onset time” value was found to be 6.37 min and the “Time for eliminating inhibition effect (min)” value is given as “more than 300 min”.

Turning to `OC(COC1C[N+]2(CCCOc3ccccc3)CCC1CC2)(c1ccco1)C1CCCC1.[Br-]` [Example 32, (2R,3R)-3-[(2-cyclopentyl-2-hydroxyl-2-(2-furyl))ethoxyl]-1-(3-phenoxypropyl)-1-azabicyclo[2,2,2]octane bromide], the IC50 in assay [1] (setting [6]) was found to be 0.0379 µM. For the same compound, in assay [2], the “Onset time” value stood at 5.85 min and the “Time for eliminating inhibition effect (min)” value is “more than 300 min”.

As to `COC(COC1C[N+]2(CCCOc3ccccc3)CCC1CC2)(c1cccnc1)C1CCCC1.[Br-]` [Example 33, (2R,3R)-3-[(2-cyclopentyl-2-methoxyl-2-(3-pyridyl))ethoxyl]-1-(3-phenoxypropyl)-1-azabicyclo[2,2,2]octane bromide], the IC50 in assay [1] (setting [6]) amounted to 0.139 µM. Moreover, in assay [2], the “Onset time” value is given as 6.17 min and the “Time for eliminating inhibition effect (min)” value was “more than 300 min”.

On to `CC(C)[N+]1(C)[C@@H]2CC[C@H]1CC(OC(=O)C(CO)c1ccccc1)C2.[Br-]` (stereo partly drawn) [ipratropium bromide, reference compound], for which the IC50 in assay [1] (setting [3]) worked out at 0.0361 µM. Besides, in assay [2], the “Onset time” value was 6.82 min and the “Time for eliminating inhibition effect” value worked out at 185 min.

Turning to `C[N+]1(C)[C@@H]2C[C@@H](OC(=O)C(O)(c3cccs3)c3cccs3)C[C@H]1[C@@H]1O[C@@H]12` [tiotropium bromide, reference compound], the IC50 in assay [1] (setting [6]) stood at 0.0142 µM. In assay [2], the “Onset time” value came out at 30.37 min and the “Time for eliminating inhibition effect (min)” value was “more than 300 min”.

For “(2R,3R),(2S,3S) Configuration of 3-[(2-cyclopentyl-2-hydroxyl-2-phenyl)ethoxyl]-1-(3-phenoxypropyl)-1-azabicyclo[2,2,2]octane bromide [Example 6]”, the IC50 in assay [1] (setting [3]) came to 0.156 µM. Also, in assay [2], the “Onset time” value is recorded as 6.61 min and the “Time for eliminating inhibition effect (min)” value was “more than 300 min”.

Take “(2R,3R),(2S,3S)-3-[(2-cyclohexyl-2-hydroxyl-2-phenyl)ethoxyl]-1-(3-phenoxypropyl)-1-azabicyclo[2,2,2]octane bromide [Example 12]”: the IC50 in assay [1] (setting [3]) was 0.251 µM. Besides, in assay [2], the “Onset time” value was 7.13 min and the “Time for eliminating inhibition effect (min)” value was “more than 300 min”.

On to “(2R,3S),(2S,3R)-3-[(2-cyclopropyl-2-hydroxyl-2-phenyl)ethoxyl]-1-(3-phenoxypropyl)-1-azabicyclo[2,2,2]octane bromide [Example 23]”, for which the IC50 in assay [1] (setting [3]) was found to be 2.02 µM. In addition, in assay [2], the “Onset time” value was determined as 6.78 min and the “Time for eliminating inhibition effect (min)” value is recorded as “more than 300 min”.
